# Test results published in US8524909B2, “Tetrahydro-pyran derivatives” (Hoffmann-La Roche Inc., priority 2010, dated 2013).
# Target: mGlyT-1b (Mus musculus (Mouse), UniProt P28571)
# Assay: Glycine Uptake Inhibition Assay (mGlyT-1b)
# Assay type: cell-based
# Details: [3H]-glycine uptake in Flp-in-CHO cells stably transfected with mGlyT1b cDNA; 20 min preincubation at 22° C.
# Procedure: DMEM complete medium: Nutrient mixture F-12 (Gibco Life-technologies), fetal bovine serum (FBS) 5%, (Gibco life technologies), Penicillin/Streptomycin 1% (Gibco life technologies), Hygromycin 0.6 mg/ml (Gibco life technologies), Glutamine 1 mM Gibco life technologies)
# Uptake buffer (UB): 150 mM NaCl, 10 mM Hepes-Tris, pH 7.4, 1 mM CaCl2, 2.5 mM KCl, 2.5 mM MgSO4, 10 mM (+) D-glucose.
# Flp-in™-CHO (Invitrogen Cat no R758-07) cells stably transfected with mGlyT1b cDNA.
# Glycine Uptake Inhibition Assay (mGlyT-1b)
# On day 1 mammalian cells, (Flp-in™-CHO), transfected with mGlyT-1b cDNA, were plated at the density of 40,000 cells/well in complete F-12 medium, without hygromycin in 96-well culture plates. On day 2, the medium was aspirated and the cells were washed twice with uptake buffer (UB). The cells were then incubated for 20 min at 22° C. with either (i) no potential competitor, (ii) 10 mM non-radioactive glycine, (iii) a concentration of a potential inhibitor. A range of concentrations of the potential inhibitor was used to generate data for calculating the concentration of inhibitor resulting in 50% of the effect (e.g. IC50, the concentration of the competitor inhibiting glycine uptake of 50%). A solution was then immediately added containing [^3H]-glycine 60 nM (11-16 Ci/mmol) and 25 μM non-radioactive glycine. The plates were incubated with gentle shaking and the reaction was stopped by aspiration of the mixture and washing (three times) with ice-cold UB. The cells were lysed with scintillation liquid, shaken 3 hours and the radioactivity in the cells was counted using a scintillation counter.
# Chain of mGlyT-1b (P28571 other isoform, or with tags, fused parts or gaps isoform P28571-2): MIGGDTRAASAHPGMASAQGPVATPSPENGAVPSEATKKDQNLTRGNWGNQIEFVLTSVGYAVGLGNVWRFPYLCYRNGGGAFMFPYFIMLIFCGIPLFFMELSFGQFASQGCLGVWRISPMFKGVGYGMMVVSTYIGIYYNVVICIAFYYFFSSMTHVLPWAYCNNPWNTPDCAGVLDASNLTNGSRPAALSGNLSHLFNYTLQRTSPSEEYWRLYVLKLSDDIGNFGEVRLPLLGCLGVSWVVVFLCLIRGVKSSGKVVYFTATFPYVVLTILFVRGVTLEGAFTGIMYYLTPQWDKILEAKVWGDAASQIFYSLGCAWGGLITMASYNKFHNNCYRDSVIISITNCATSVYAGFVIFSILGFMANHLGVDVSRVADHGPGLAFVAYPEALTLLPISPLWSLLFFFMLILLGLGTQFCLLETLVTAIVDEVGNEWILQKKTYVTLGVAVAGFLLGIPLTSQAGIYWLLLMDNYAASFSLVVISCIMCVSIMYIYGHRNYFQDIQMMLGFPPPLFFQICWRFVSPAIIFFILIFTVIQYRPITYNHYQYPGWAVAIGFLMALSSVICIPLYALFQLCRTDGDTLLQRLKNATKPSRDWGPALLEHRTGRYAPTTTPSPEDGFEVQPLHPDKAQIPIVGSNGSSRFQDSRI
row,SMILES,IC50
1,"CCc1cc(C(F)(F)F)cc(CC)c1C(=O)N[C@@H]1COCC[C@H]1N1CCCC1 (racemic) [Example 23, 2,6-Diethyl-N-((3SR,4RS)-4-pyrrolidin-1-yl-tetrahydro-pyran-3-yl)-4-trifluoro-methylbenzamide]",58.4 nM
2,"Cc1cc(C(F)(F)F)cc(C(F)(F)F)c1C(=O)N[C@@H]1COCC[C@H]1N1CCCC1 (racemic) [Example 10, 2-Methyl-N-((3SR,4RS)-4-pyrrolidin-1-yl-tetrahydro-pyran-3-yl)-4,6-bis-trifluoromethyl-benzamide]",41.2 nM
3,"O=C(N[C@@H]1COCC[C@H]1NC1CCCCC1)c1ccc(C(F)(F)F)cc1C1CC1 (racemic) [Example 14, N-((3SR,4RS)-4-Cyclohexylamino-tetrahydro-pyran-3-yl)-2-cyclopropyl-4-trifluoromethyl-benzamide]",125 nM
4,"CSc1cc(C(F)(F)F)cc(C(F)(F)F)c1C(=O)N[C@@H]1COCC[C@H]1NC1CCCC1 (racemic) [Example 13, N-((3SR,4RS)-4-Cyclopentylamino-tetrahydro-pyran-3-yl)-2-methylsulfanyl-4,6-bis-trifluoromethyl-benzamide]",250 nM
5,"COc1cc(C(F)(F)F)cc(C)c1C(=O)N[C@@H]1COCC[C@H]1N1CCCC1 (racemic) [Example 22, 2-Methoxy-6-methyl-N-((3SR,4RS)-4-pyrrolidin-1-yl-tetrahydro-pyran-3-yl)-4-trifluoro-methylbenzamide]",105 nM
6,CCc1cc(C(F)(F)F)cc(OC)c1C(=O)N[C@H]1COCC[C@@H]1N1CCCC1 [Example 55],48.3 nM
7,"COc1cc(C(F)(F)F)cc(SC)c1C(=O)N[C@H]1COCC[C@H]1NC1CCC1 (racemic) [Example 3, N-((3RS,4RS)-4-Cyclobutylamino-tetrahydro-pyran-3-yl)-2-methoxy-6-methylsulfanyl-4-trifluoromethyl-benzamide]",506 nM
8,"O=C(N[C@@H]1COCC[C@H]1N1CCCC1)c1c(C2CC2)cc(C(F)(F)F)cc1C(F)(F)F (racemic) [Example 15, 2-Cyclopropyl-N-((3SR,4RS)-4-pyrrolidin-1-yl-tetrahydro-pyran-3-yl)-4,6-bis-trifluoromethyl-benzamide]",13.2 nM
9,COc1cc(C(F)(F)F)cc(C2CC2)c1C(=O)N[C@H]1COCC[C@@H]1N1CCCC1 [Example 57],62.5 nM
10,Cc1cc(C(F)(F)F)cc(C)c1C(=O)N[C@H]1COCC[C@@H]1N1CCCC1 [Example 51],25.3 nM
11,Cc1cc(C(F)(F)F)cc(C)c1C(=O)N[C@@H]1COCC[C@H]1N1CCCC1 [Example 52],34.1 nM
12,"O=C(N[C@@H]1COCC[C@H]1NC1CC1)c1ccc(C(F)(F)F)cc1C1CC1 (racemic) [Example 20, 2-Cyclopropyl-N-((3SR,4RS)-4-cyclopropylamino-tetrahydro-pyran-3-yl)-4-trifluoromethyl-benzamide]",193 nM
13,"COc1cc(C(F)(F)F)cc(C2CC2)c1C(=O)N[C@@H]1COCC[C@H]1N1CCCC1 (racemic) [Example 27, Cyclopropyl-6-methoxy-N-((3SR,4RS) 4 pyrrolidin-1-yl-tetrahydro-pyran-3-yl)-4-trifluoro-methyl-benzamide]",14.7 nM
14,"COc1cc(C(F)(F)F)cc(SC)c1C(=O)N[C@@H]1COCC[C@H]1NC(C)C1CC1 (mixture of isomers) [Example 31, N-[(3SR,4RS)-4-(1-Cyclopropyl-ethylamino)-tetrahydro-pyran-3-yl]-2-methoxy-6-methylsulfanyl-4-trifluoro-methyl-benzamide]",276 nM
15,"O=C(N[C@@H]1COCC[C@H]1N1CCCC1)c1ccc(C(F)(F)F)cc1C1CC1 [Example 37, (+)-2-Cyclopropyl-N-(4-pyrrolidin-1-yl-tetrahydro-pyran-3-yl)-4-trifluoromethyl-benzamide]",83.4 nM
16,"COc1cc(C(F)(F)F)cc(SC)c1C(=O)N[C@@H]1COCC[C@H]1NC1(C)CCCC1 (racemic) [Example 28, 2-Methoxy-N-[(3SR,4RS)-4-(1-methyl-cyclo-pentylamino)-tetrahydro-pyran-3-yl]-6-methyl-sulfanyl-4-trifluoromethyl-benzamide]",144 nM
17,"O=C(N[C@@H]1COCC[C@H]1NC1CCCC1)c1ccc(C(F)(F)F)cc1C1CC1 [Example 44, (−)-N-(trans-4-Cyclopentylamino-tetrahydro-pyran-3-yl)-2-cyclopropyl-4-trifluoromethyl-benzamide]",299 nM

row,SMILES,IC50
1,"COc1cc(C(F)(F)F)cc(SC)c1C(=O)N[C@@H]1COCC[C@H]1NC1(C)CCCCC1 (racemic) [Example 25, 2-Methoxy-N-[(3SR,4RS)-4-(1-methyl-cyclohexyl-amino)-tetrahydro-pyran-3-yl]-6-methyl-sulfanyl-4-trifluoromethyl-benzamide]",278 nM
2,"COc1cc(C(F)(F)F)cc(SC)c1C(=O)N[C@H]1CCOC[C@H]1N1CCCC1 [Example 64, (−)-2-Methoxy-6-methylsulfanyl-N-(3-pyrrolidin-1-yl-tetrahydro-pyran-4-yl)-4-trifluoro-methyl-benzamide]",189 nM
3,"COc1cc(C(F)(F)F)cc(SC)c1C(=O)N[C@@H]1COCC[C@H]1NC1CCCC1 [Example 46, (−)-N-(4-Cyclopentylamino-tetrahydro-pyran-3-yl)-2-methoxy-6-methylsulfanyl-4-trifluoromethyl-benzamide]",158 nM
4,"Cc1cc(C(F)(F)F)cc(C(F)(F)F)c1C(=O)N[C@H]1COCC[C@@H]1N1CCCC1 [Example 39, (+)-2-Methyl-N-trans-(4-pyrrolidin-1-yl-tetrahydro-pyran-3-yl)-4,6-bis-trifluoro-methyl-benzamide]",43.9 nM
5,"COc1cc(C(F)(F)F)cc(SC)c1C(=O)N[C@@H]1COCC[C@H]1NC1CCC(O)CC1 (mixture of isomers) [Example 33, N-[(3SR,4RS)-4-(4-Hydroxy-cyclohexylamino)-tetrahydro-pyran-3-yl]-2-methoxy-6-methylsulfanyl-4-trifluoromethyl-benzamide]",751 nM
6,"O=C(N[C@@H]1COCC[C@H]1N1C[C@H]2C[C@H]2C1)c1ccc(C(F)(F)F)cc1C1CC1 [Example 35, N-[(3S,4R)-4-(3-Aza-bicyclo[3.1.0]hex-3-yl)-tetra-hydro-pyran-3-yl]-2-cyclopropyl-4-trifluoromethyl-benzamide]",26.5 nM
7,"COc1cc(C(F)(F)F)cc(SC)c1C(=O)N[C@H]1COCC[C@@H]1N1CCCC1 (single isomer, unassigned) [Example 6, (−)-2-Methoxy-6-methylsulfanyl-N-(4-pyrrolidin-1-yl-tetrahydro-pyran-3-yl)-4-trifluoromethyl-benzamide]",28.4 nM
8,"COc1cc(C(F)(F)F)cc(SC)c1C(=O)N[C@H]1COCC[C@@H]1N1CCCC1 (single isomer, unassigned) [Example 5, (+)-2-Methoxy-6-methylsulfanyl-N-(4-pyrrolidin-1-yl-tetrahydro-pyran-3-yl)-4-trifluoromethyl-benzamide]",118 nM
9,O=C(N[C@H]1COCC[C@@H]1NC1CCCCC1)c1ccc(C(F)(F)F)cc1C1CC1 [Example 50],57 nM
10,"O=C(N[C@@H]1COCC[C@H]1N1CCCC1)c1c(C2CC2)cc(C(F)(F)F)cc1C(F)(F)F [Example 48, (−)-2-Cyclopropyl-N-(4-pyrrolidin-1-yl-tetrahydro-pyran-3-yl)-4,6-bis-trifluoromethyl-benzamide]",20 nM
11,"CCc1cc(C(F)(F)F)cc(OC)c1C(=O)N[C@@H]1COCC[C@H]1N1CCCC1 (racemic) [Example 24, 2-Ethyl-6-methoxy-N-((3SR,4RS)-4-pyrrolidin-1-yl-tetrahydro-pyran-3-yl)-4-trifluoro-methyl-benzamide]",64.1 nM
12,"O=C(N[C@@H]1COCC[C@H]1NC1CCCC1)c1ccc(C(F)(F)F)cc1C1CC1 (racemic) [Example 12, N-((3SR,4RS)-4-Cyclopentylamino-tetrahydro-pyran-3-yl)-2-cyclopropyl-4-trifluoromethyl-benzamide]",75 nM
13,"CSc1cc(C(F)(F)F)cc(C(F)(F)F)c1C(=O)N[C@@H]1COCC[C@H]1N1CCCC1 [Example 42, (−)-2-Methylsulfanyl-N-trans-(4-pyrrolidin-1-yl-tetrahydro-pyran-3-yl)-4,6-bis-trifluoromethyl-benzamide]",27 nM
14,"CCc1cc(C(F)(F)F)cc(C)c1C(=O)N[C@@H]1COCC[C@H]1N1CCCC1 (racemic) [Example 26, 2-Ethyl-6-methyl-N-((3SR,4RS)-4-pyrrolidin-1-yl-tetrahydro-pyran-3-yl)-4-trifluoro-methyl-benzamide]",17.9 nM
15,"O=C(N[C@H]1COCC[C@@H]1NC1CCCC1)c1ccc(C(F)(F)F)cc1C1CC1 (stereo in doubt) [Example 43, (+)-N-(trans-4-Cyclopentylamino-tetrahydro-pyran-3-yl)-2-cyclopropyl-4-trifluoromethyl-benzamide]",78.8 nM
16,"COc1cc(C(F)(F)F)cc(C)c1C(=O)N[C@H]1COCC[C@@H]1N1CCCC1 [Example 53, (+)-2-Methoxy-6-methyl-N-(4-pyrrolidin-1-yl-tetrahydro-pyran-3-yl)-4-trifluoromethyl-benzamide]",78.2 nM
